One data set has as its target T1, PKCδ (Homo sapiens, UniProt Q05655).
T1 construct: purchased Calbiochem
In words: PKC isozyme specificity: PKCδ. Format: biochemical. The conditions noted are these: about 1-100 μM; data not shown. The procedure: (§1) Protein Kinase C Assay. Rat hippocampal cells were cultured and scraped in 0.2 ml homogenization buffer (20 mM Tris-HCl, pH 7.4, 50 mM NaF, 1 μg/ml leupeptin, and 0.1 mM PMSF) and homogenized by sonication in a Marsonix micro-probe sonicator (5 sec, 10 W). To measure PKC, 10 μl of cell homogenate or purified PKC isozyme (purchased from Calbiochem) was incubated for 15 min at 37° C. in the presence of 10 μM histones, 4.89 mM CaCl2, 1.2 μg/μl phosphatidyl-L-serine, 0.18 μg/μl 1,2-dioctanoyl-sn-glycerol, 10 mM MgCl2, 20 mM HEPES (pH 7.4), 0.8 mM EDTA, 4 mM EGTA, 4% glycerol, 8 μg/ml aprotinin, 8 μg/ml leupeptin, and 2 mM benzamidine. 0.5 μCi [γ-32P]ATP was added and 32P-phosphoprotein formation was measured by adsorption onto phosphocellulose as described previously. Nelson and Alkon, J. Neurochemistry. 1995; 65: 2350-57. For measurements of activation by BR-101 (DCP-LA) and similar compounds, PKC activity was measured in the absence of diacylglycerol and phosphatidylserine, as described by Kanno et al., and PKC δ, ε, η, and were measured in the absence of added EGTA and CaCl2, as described by Kanno et al., J. Lipid Res. 2006; 47: 1146-50. […]
(§2) To determine their PKC isozyme specificity, the new compounds were preincubated with purified PKC for five minutes and the PKC activity was measured radiometrically.

The nature of data set [1]: Cell viability assay (alamar Blue and CyQuant staining). Format: cell-based. As for the experimental part: (§3) Aß Measurement and Cell Viability Assay. Aß was measured using an Aß 1-42 human fluorimetric ELISA kit (Invitrogen) according to the manufacturer's instructions. Results were measured in a Biotek Synergy HT microplate reader. AlamarBlue and CyQuant NF (Invitrogen) according to the manufacturer's instructions.
On the technique in general: Resazurin is reduced to fluorescent resorufin, in cell work by metabolically active cells.

Data set [2] has as its target T2, PKCε (Homo sapiens, UniProt Q02156).
T2 construct: purchased Calbiochem (San Diego, Calif.)
T2 sequence (Q02156 1-737): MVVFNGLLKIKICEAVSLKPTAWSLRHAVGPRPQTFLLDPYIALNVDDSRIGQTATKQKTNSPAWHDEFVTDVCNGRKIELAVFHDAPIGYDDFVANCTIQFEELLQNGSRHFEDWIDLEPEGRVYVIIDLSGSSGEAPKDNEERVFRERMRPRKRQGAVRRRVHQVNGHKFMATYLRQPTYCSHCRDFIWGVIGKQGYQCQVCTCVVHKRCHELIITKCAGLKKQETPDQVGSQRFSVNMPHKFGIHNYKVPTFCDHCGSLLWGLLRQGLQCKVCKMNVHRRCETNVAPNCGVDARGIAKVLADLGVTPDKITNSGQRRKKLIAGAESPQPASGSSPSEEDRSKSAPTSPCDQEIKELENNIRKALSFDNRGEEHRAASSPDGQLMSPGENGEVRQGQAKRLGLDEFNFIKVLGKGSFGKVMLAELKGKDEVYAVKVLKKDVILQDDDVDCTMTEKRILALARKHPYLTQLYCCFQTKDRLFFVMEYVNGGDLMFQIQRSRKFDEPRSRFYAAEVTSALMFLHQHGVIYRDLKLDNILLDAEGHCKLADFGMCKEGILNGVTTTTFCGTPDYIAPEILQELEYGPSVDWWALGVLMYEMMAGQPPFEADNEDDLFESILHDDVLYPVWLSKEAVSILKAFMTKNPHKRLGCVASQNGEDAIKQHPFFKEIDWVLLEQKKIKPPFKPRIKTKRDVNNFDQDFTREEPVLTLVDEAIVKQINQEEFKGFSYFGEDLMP
The settings on record: Kanno et al.; cited from earlier work.

The subject of a further data set is other PKC isoforms. As to the kind of experiment: PKC isozyme specificity: other PKC isoforms. The settings on record: 10 μM; data not shown. Format: biochemical. The procedure:
as §1, §2

The target in data set [3] is T2, PKCε. As to the kind of experiment: Protein kinase C assay with recombinant PKC epsilon isoform ([γ32P]ATP, histones). Format: biochemical. The conditions noted are these: lowest concentration tested (10 nM). The procedure: Protein Kinase C Assay. Recombinant PKC (1 ng of alpha or epsilon isoform) was mixed with the BR-101 (DCP-LA) in the presence of 10 micromolar histones, 5 mM CaCl2, 1.2 μg/μl phosphatidyl-L-serine, 0.18 μg/μl 1,2-dioctanoyl-sn-glycerol (DAG), 10 mM MgCl2, 20 mM HEPES (pH 7.4), 0.8 mM EDTA, 4 mM EGTA, 4% glycerol, 8 μg/ml aprotinin, 8 μg/ml leupeptin, and 2 mM benzamidine. 0.5 micro Ci [γ32P]ATP was added. The incubation mixture was incubated for 15 min at 37 degrees in a total volume of 10 microliters. The reaction was stopped by spotting the reaction mixtures on 1×2 cm strips of cellulose phosphate paper (Whatman P81) and immediately washing twice for 1 hr in 0.5% H3PO4. The cellulose phosphate strips were counted in a scintillation counter. In some experiments, phosphatidylserine, diacylglycerol, and/or calcium were removed.

In another data set the target is T3, PKCγ (Homo sapiens, UniProt P05129).
T3 construct: purchased Calbiochem
As to the kind of experiment: PKC isozyme specificity: PKCγ. Format: biochemical. The conditions noted are these: 50-100 μM; data not shown. The procedure:
as §1, §2

In another data set the test system is Aß. In words: Aß production in N2a neuroblastoma cells transfected with human APPSwe/PS1D (Aß 1-42 ELISA). Format: cell-based, mouse. As for the experimental part:
as §3
To measure the effects of PKC activation on Aß production, we used mouse neuro2a (N2a) neuroblastoma cells transfected with human APPSwe/PS1D, which produce large quantities of Aβ. Petanceska et al., J. Neurochem. 1996; 74: 1878-84. […] With bryostatin, which activates PKC by binding to the diacylglycerol-binding site, the inhibition was biphasic, with concentrations of 20 nM or higher producing no net effect. This may be explained by the ability of this class of PKC activators to downregulate PKC when used at high concentrations.
In general terms: In an ELISA, binding on a coated surface is turned into a signal by an enzyme label.

The target in the next data set is T4, purified PKC (Homo sapiens, UniProt Q02156).
T4 construct: purchased Calbiochem
T4 sequence (Q02156 1-737): T2 sequence (Q02156 1-737)
As to the kind of experiment: PKC isozyme specificity: purified PKC preincubated with compound, activity measured radiometrically. The format is biochemical. The conditions noted are these: 10 μM; data not shown. The procedure: Protein Kinase C Assay. Rat hippocampal cells were cultured and scraped in 0.2 ml homogenization buffer (20 mM Tris-HCl, pH 7.4, 50 mM NaF, 1 μg/ml leupeptin, and 0.1 mM PMSF) and homogenized by sonication in a Marsonix micro-probe sonicator (5 sec, 10 W). To measure PKC, 10 μl of cell homogenate or purified PKC isozyme (purchased from Calbiochem) was incubated for 15 min at 37° C. in the presence of 10 μM histones, 4.89 mM CaCl2, 1.2 μg/μl phosphatidyl-L-serine, 0.18 μg/μl 1,2-dioctanoyl-sn-glycerol, 10 mM MgCl2, 20 mM HEPES (pH 7.4), 0.8 mM EDTA, 4 mM EGTA, 4% glycerol, 8 μg/ml aprotinin, 8 μg/ml leupeptin, and 2 mM benzamidine. 0.5 μCi [γ-32P]ATP was added and 32P-phosphoprotein formation was measured by adsorption onto phosphocellulose as described previously. Nelson and Alkon, J. Neurochemistry. 1995; 65: 2350-57. For measurements of activation by BR-101 (DCP-LA) and similar compounds, PKC activity was measured in the absence of diacylglycerol and phosphatidylserine, as described by Kanno et al., and PKC δ, ε, η, and were measured in the absence of added EGTA and CaCl2, as described by Kanno et al., J. Lipid Res. 2006; 47: 1146-50. Low concentrations of Ca2+ are used because high Ca2+ interacts with the PKC phosphatidylserine binding site and prevents activation. For measurements of bryostatin activation, 1,2-diacylglycerol was omitted unless otherwise stated.
as §2

T1 sequence (Q05655 whole entry): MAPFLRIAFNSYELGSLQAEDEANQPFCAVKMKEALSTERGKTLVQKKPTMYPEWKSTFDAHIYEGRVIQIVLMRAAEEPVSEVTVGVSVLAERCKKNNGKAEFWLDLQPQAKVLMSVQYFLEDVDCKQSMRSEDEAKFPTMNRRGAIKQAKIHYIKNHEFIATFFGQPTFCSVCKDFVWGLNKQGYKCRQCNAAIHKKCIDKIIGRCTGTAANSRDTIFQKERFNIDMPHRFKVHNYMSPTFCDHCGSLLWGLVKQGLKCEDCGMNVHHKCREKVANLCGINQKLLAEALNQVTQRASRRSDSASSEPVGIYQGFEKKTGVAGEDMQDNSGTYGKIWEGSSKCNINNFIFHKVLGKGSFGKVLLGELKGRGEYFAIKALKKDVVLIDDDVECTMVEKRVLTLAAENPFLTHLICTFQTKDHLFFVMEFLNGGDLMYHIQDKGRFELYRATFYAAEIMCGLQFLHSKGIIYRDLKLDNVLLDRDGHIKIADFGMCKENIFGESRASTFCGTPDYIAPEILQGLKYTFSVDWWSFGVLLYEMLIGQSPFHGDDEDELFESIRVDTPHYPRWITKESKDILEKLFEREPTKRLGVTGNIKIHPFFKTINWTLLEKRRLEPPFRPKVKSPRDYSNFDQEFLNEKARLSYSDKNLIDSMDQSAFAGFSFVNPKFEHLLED

As for `CCCCCC1CC1CC1CC1CCCCCCCC(=O)O` (stereo not drawn) [BR-101, 8-[2-(2-pentyl-cyclopropylmethyl)-cyclopropyl]-octanoic acid], on PKCδ, the “effect on PKCδ at higher concentrations” value is given as “partially inhibited”. In data set [1], the “effect on cell survival or proliferation” value is reported as “no effect”. Further, the “potency for PKCε over other PKC isozymes” value on PKCε [2] is “greater than 7 fold”. Further, the “effects on the other PKC isoforms” value in the data set with other PKC isoforms is recorded as “relatively small effects”. The “activation of PKCε” value on PKCε [3] was determined as 2.75 fold. In addition, the “effect on PKCγ at higher concentrations” value at PKCγ was “activated”. Also, in the data set with Aß (24 h incubation, various concentrations), the “levels of both intracellular and secreted Aß” value is on record as “markedly reduced”. Further, the “concentration dependence of Aß inhibition” value in the data set with Aß (concentrations up to 10 to 100 μM, no evidence of downregulation at higher concentrations) was “monotonically increasing inhibition”. Also, on purified PKC, the “activation of PKC” value is recorded as “effective activator”.

Values taken from patent US20230235378A1, “LZHEIMER'S DISEASE-SPECIFIC ALTERATIONS OF PROTEIN KINASE C EPSILON (PKC-EPSILON PROTEIN LEVELS” (WEST VIRGINIA UNIVERSITY BOARD OF GOVERNORS ON BEHALF OF …, priority 2010, published 2023).
